Results from ChEMBL document CHEMBL4330135, “Discovery of 2-phenylthiazole-4-carboxylic acid, a novel and potent scaffold as xanthine oxidase inhibitors” (Bioorg Med Chem Lett, 2019).
Activity calls are given as the source filed them. The calls are words filed in the database; no cut-off is given here.

Key:
[1] = biological target: T1, Xanthine dehydrogenase/oxidase (Bos taurus, UniProt P80457); assay: Inhibition of bovine milk xanthine oxidase using xanthine as substrate preincubated for 3 mins followed by substrate addition and measured at 1 min for 10 mins
T1 sequence (P80457 whole entry): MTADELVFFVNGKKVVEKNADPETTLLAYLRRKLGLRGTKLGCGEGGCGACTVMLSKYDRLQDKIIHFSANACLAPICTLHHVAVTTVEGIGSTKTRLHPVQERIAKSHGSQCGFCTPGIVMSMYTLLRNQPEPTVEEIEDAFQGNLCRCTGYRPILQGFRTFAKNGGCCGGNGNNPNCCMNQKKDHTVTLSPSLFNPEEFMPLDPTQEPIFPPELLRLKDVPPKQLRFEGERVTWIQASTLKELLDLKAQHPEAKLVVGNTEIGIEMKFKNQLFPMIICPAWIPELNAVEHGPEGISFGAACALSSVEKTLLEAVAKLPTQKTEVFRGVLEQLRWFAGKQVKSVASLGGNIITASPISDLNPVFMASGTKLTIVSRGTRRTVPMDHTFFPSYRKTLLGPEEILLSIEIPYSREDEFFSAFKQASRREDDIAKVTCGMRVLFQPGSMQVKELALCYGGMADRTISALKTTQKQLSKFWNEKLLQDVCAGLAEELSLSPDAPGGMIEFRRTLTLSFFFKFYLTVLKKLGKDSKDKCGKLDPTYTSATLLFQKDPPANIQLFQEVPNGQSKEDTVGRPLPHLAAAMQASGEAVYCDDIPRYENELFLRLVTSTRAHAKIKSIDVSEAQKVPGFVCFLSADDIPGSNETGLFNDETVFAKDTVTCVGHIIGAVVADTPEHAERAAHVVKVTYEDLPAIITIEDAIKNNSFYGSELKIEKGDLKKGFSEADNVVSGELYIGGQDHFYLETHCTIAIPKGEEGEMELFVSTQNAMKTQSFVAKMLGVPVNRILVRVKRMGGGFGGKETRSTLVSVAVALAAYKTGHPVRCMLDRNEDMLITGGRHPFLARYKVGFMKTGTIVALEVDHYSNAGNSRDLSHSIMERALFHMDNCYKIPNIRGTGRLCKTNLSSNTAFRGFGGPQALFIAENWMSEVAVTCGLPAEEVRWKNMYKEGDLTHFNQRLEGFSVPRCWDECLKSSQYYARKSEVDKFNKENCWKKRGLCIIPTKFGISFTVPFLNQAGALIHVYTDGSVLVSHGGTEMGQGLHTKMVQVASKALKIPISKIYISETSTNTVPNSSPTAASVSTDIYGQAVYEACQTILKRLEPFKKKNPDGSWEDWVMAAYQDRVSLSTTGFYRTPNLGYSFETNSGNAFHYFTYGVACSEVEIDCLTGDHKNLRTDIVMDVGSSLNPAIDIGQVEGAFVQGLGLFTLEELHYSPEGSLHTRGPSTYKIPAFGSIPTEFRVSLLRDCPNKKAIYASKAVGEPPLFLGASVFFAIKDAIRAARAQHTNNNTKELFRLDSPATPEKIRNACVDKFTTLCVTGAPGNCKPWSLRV

Mus musculus [2] = assay: Hypouricemic effect in ICR mouse model of potassium oxonate and hypoxanthine-induced acute hyperuricemia assessed as reduction in serum uric acids level at 20 mg/kg, po dosed 1 hr after potassium oxonate and hypoxanthine challenge and measured after 1 hr; assay type: functional, organism-based
[3] = biological target: T1, Xanthine dehydrogenase/oxidase; assay: Inhibition of bovine milk xanthine oxidase at 10 uM using xanthine as substrate preincubated for 3 mins followed by substrate addition and measured at 1 min for 10 mins relative to control; details: cattle
Mus musculus [4] = assay: Hypouricemic effect in ICR mouse model of potassium oxonate and hypoxanthine-induced acute hyperuricemia assessed as reduction in serum uric acids level at 5 mg/kg, po dosed 1 hr after potassium oxonate and hypoxanthine challenge and measured after 1 hr; assay type: functional, organism-based

inhibition at 10 µM [3] [%] | SMILES | also measured
– | CC(C)COc1ccc(-c2nc(C(=O)O)cs2)cc1[N+](=O)[O-] | IC50 [1]: 48.6 nM; Activity (Mus musculus [2]): Active
18.6 | O=C(O)c1nc(-c2ccccc2)cs1 | –
13.9 | Cc1cc(C(=O)O)nn1-c1ccccc1 | –
37.6 | Cc1nc(-c2ccccc2)sc1C(=O)O | –
12.5 | Cc1nc(-c2ccccc2)oc1C(=O)O | –
4.2 | O=C(O)c1cc(-c2ccccc2)on1 | –
32.8 | O=C(O)c1csc(-c2ccccc2)n1 | –
– | Cc1nc(-c2ccc(OCC(C)C)c([N+](=O)[O-])c2)sc1C(=O)O | IC50 [1]: 33.4 nM; Activity (Mus musculus [2]): Active

SMILES | inhibition at 10 µM [3] [%] | also measured
Cc1nc(-c2ccc(OCC(C)C)c(C#N)c2)sc1C(=O)O [FEBUXOSTAT] | 98.5 | Activity (Mus musculus [4]): Active
